Six compounds from patent publication US20260200947A1, “FUSED CYCLIC COMPOUNDS AND USE THEREOF” (Jacobio Pharmaceuticals Co., Ltd., priority 2022, published 2026) can be followed below.

Structures are written as SMILES.

GppNp-KRAS G12V, sequence (P01116 1-169 isoform P01116-2 G12V): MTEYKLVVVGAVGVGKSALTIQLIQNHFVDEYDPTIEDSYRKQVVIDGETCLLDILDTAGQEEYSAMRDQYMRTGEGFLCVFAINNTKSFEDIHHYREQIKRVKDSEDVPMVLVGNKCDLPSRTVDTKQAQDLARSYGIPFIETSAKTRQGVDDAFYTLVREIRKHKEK

The first experiment concerns SW620 cells (K-Ras G12V). The experiment is described as follows: Phospho-ERK1/2(THR202/TYR204) HTRF assay, SW620. Format: cell-based. The conditions noted are these: Homo sapiens, SW-620, 2 hours incubation, read-out: pERK, IC50, SW620.
The term IC50 denotes the midpoint of a concentration-inhibition curve. For `C#Cc1c(F)ccc2cc(N)cc(-c3nc4c5c(nc(OC[C@@]67CCCN6C[C@H](F)C7)nc5c3F)N3[C@@H](CC)CCOC[C@H]3N4C)c12` [Compound 94], the IC50 was 1.71 nM.
Same read-out and setting: with `C#Cc1c(F)ccc2cc(N)cc(-c3nc4c5c(nc(OC[C@@]67CCCN6C[C@H](F)C7)nc5c3F)N3CCC=CC[C@H]3C4=C)c12` [Compound 67] the figure was 8.74 nM; with `[2H]C1([2H])OCCCN2c3nc(OC[C@@]45CCCN4C[C@H](F)C5)nc4c(F)c(-c5cc(N)cc6ccc(F)c(C#C)c56)nc(c34)N(C)C21` (some centres unmarked) [Compound 76], 2.08 nM.
The same measure, in the same setting: in the case of `C[C@H]1CCOC[C@H]2N(C)c3nc(-c4cc(O)cc5ccc(F)c(Cl)c45)c(F)c4nc(OC[C@@]56CCCN5C[C@H](F)C6)nc(c34)N12` [Compound 119] it was 13 nM; in that of `C#Cc1c(F)ccc2cc(N)cc(-c3nc4c5c(nc(OC[C@@]67CCCN6C[C@H](F)C7)nc5c3F)N3CCOCCC3N4C)c12` (some centres unmarked) [Compound 114], 28.3 nM.

The target of the next experiment is GDP-KRAS G12D (Homo sapiens, UniProt P01116, G12D). The experiment can be described thus: biochemical.
GDP-KRAS G12D, sequence (P01116 1-169 isoform P01116-2 G12D): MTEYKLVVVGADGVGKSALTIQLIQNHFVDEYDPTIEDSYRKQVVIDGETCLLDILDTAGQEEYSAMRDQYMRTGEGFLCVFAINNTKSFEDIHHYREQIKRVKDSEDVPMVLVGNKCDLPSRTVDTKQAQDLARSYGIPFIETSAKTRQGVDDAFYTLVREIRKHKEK
Details: not given
The compound `C#Cc1c(F)ccc2cc(N)cc(-c3nc4c5c(nc(OC[C@@]67CCCN6C[C@H](F)C7)nc5c3F)N3[C@H](C)CCOC[C@H]3N4C)c12` [Compound 41] gave an IC50 of 5.51 nM.
Same read-out and setting: with `C#Cc1c(F)ccc2cc(N)cc(-c3nc4c5c(nc(OC[C@@]67CCCN6C[C@H](F)C7)nc5c3F)N3[C@@H](CC)CCOC[C@H]3N4C)c12` [Compound 94] the figure was 1.17 nM; with `C#Cc1c(F)ccc2cc(N)cc(-c3nc4c5c(nc(OC[C@@]67CCCN6C[C@H](F)C7)nc5c3F)N3CCC=CC[C@H]3C4=C)c12` [Compound 67], 1.72 nM.
On the same count and under the same terms, in the case of `[2H]C1([2H])OCCCN2c3nc(OC[C@@]45CCCN4C[C@H](F)C5)nc4c(F)c(-c5cc(N)cc6ccc(F)c(C#C)c56)nc(c34)N(C)C21` (some centres unmarked) [Compound 76] it was 2.84 nM.
As for `C[C@H]1CCOC[C@H]2N(C)c3nc(-c4cc(O)cc5ccc(F)c(Cl)c45)c(F)c4nc(OC[C@@]56CCCN5C[C@H](F)C6)nc(c34)N12` [Compound 119], the IC50 was determined as 1.53 nM.
Same read-out and setting: in the case of `C#Cc1c(F)ccc2cc(N)cc(-c3nc4c5c(nc(OC[C@@]67CCCN6C[C@H](F)C7)nc5c3F)N3CCOCCC3N4C)c12` (some centres unmarked) [Compound 114] it was 3.73 nM.

The next experiment relates to SW620 cells (K-Ras G12V).
Experiment: not given
Details: not given
As to `C#Cc1c(F)ccc2cc(N)cc(-c3nc4c5c(nc(OC[C@@]67CCCN6C[C@H](F)C7)nc5c3F)N3[C@H](C)CCOC[C@H]3N4C)c12` [Compound 41], the IC50 is 40.1 nM.
Same read-out and setting: with `C#Cc1c(F)ccc2cc(N)cc(-c3nc4c5c(nc(OC[C@@]67CCCN6C[C@H](F)C7)nc5c3F)N3[C@@H](CC)CCOC[C@H]3N4C)c12` [Compound 94] the figure was 6.09 nM.
Same read-out and setting: with `C#Cc1c(F)ccc2cc(N)cc(-c3nc4c5c(nc(OC[C@@]67CCCN6C[C@H](F)C7)nc5c3F)N3CCC=CC[C@H]3C4=C)c12` [Compound 67] the figure was 16.2 nM.
Still for that read-out and setting: in the case of `[2H]C1([2H])OCCCN2c3nc(OC[C@@]45CCCN4C[C@H](F)C5)nc4c(F)c(-c5cc(N)cc6ccc(F)c(C#C)c56)nc(c34)N(C)C21` (some centres unmarked) [Compound 76] it was 7.86 nM.
As to `C[C@H]1CCOC[C@H]2N(C)c3nc(-c4cc(O)cc5ccc(F)c(Cl)c45)c(F)c4nc(OC[C@@]56CCCN5C[C@H](F)C6)nc(c34)N12` [Compound 119], the IC50 was 14.7 nM.
On the same count and under the same terms, with `C#Cc1c(F)ccc2cc(N)cc(-c3nc4c5c(nc(OC[C@@]67CCCN6C[C@H](F)C7)nc5c3F)N3CCOCCC3N4C)c12` (some centres unmarked) [Compound 114] the figure was 45.8 nM.

The next experiment deals with GppNp-KRAS G12D (Homo sapiens, UniProt P01116, G12D). The experiment can be described thus: biochemical.
GppNp-KRAS G12D, sequence (P01116 1-169 isoform P01116-2 G12D): as above
Details: not given
Regarding `C#Cc1c(F)ccc2cc(N)cc(-c3nc4c5c(nc(OC[C@@]67CCCN6C[C@H](F)C7)nc5c3F)N3[C@H](C)CCOC[C@H]3N4C)c12` [Compound 41], the IC50 came out at 376 nM.
Still for that read-out and setting: with `C#Cc1c(F)ccc2cc(N)cc(-c3nc4c5c(nc(OC[C@@]67CCCN6C[C@H](F)C7)nc5c3F)N3[C@@H](CC)CCOC[C@H]3N4C)c12` [Compound 94] the figure was 224 nM; with `C#Cc1c(F)ccc2cc(N)cc(-c3nc4c5c(nc(OC[C@@]67CCCN6C[C@H](F)C7)nc5c3F)N3CCC=CC[C@H]3C4=C)c12` [Compound 67], 59.9 nM; with `[2H]C1([2H])OCCCN2c3nc(OC[C@@]45CCCN4C[C@H](F)C5)nc4c(F)c(-c5cc(N)cc6ccc(F)c(C#C)c56)nc(c34)N(C)C21` (some centres unmarked) [Compound 76], 96.3 nM.
The same measure, in the same setting: with `C[C@H]1CCOC[C@H]2N(C)c3nc(-c4cc(O)cc5ccc(F)c(Cl)c45)c(F)c4nc(OC[C@@]56CCCN5C[C@H](F)C6)nc(c34)N12` [Compound 119] the figure was 71.1 nM.
Same read-out and setting: in the case of `C#Cc1c(F)ccc2cc(N)cc(-c3nc4c5c(nc(OC[C@@]67CCCN6C[C@H](F)C7)nc5c3F)N3CCOCCC3N4C)c12` (some centres unmarked) [Compound 114] it was 295 nM.

A further experiment has as its target GppNp-KRAS G12V (Homo sapiens, UniProt P01116, G12V). The experiment is described as follows: biochemical.
Details: not given
In turn, `C#Cc1c(F)ccc2cc(N)cc(-c3nc4c5c(nc(OC[C@@]67CCCN6C[C@H](F)C7)nc5c3F)N3[C@H](C)CCOC[C@H]3N4C)c12` [Compound 41] showed an IC50 above 1000 nM.
Same read-out and setting: in the case of `C#Cc1c(F)ccc2cc(N)cc(-c3nc4c5c(nc(OC[C@@]67CCCN6C[C@H](F)C7)nc5c3F)N3[C@@H](CC)CCOC[C@H]3N4C)c12` [Compound 94] it was 204 nM; in that of `C#Cc1c(F)ccc2cc(N)cc(-c3nc4c5c(nc(OC[C@@]67CCCN6C[C@H](F)C7)nc5c3F)N3CCC=CC[C@H]3C4=C)c12` [Compound 67], 113 nM.
Still for that read-out and setting: in the case of `[2H]C1([2H])OCCCN2c3nc(OC[C@@]45CCCN4C[C@H](F)C5)nc4c(F)c(-c5cc(N)cc6ccc(F)c(C#C)c56)nc(c34)N(C)C21` (some centres unmarked) [Compound 76] it was 118 nM.
On the same count and under the same terms, with `C[C@H]1CCOC[C@H]2N(C)c3nc(-c4cc(O)cc5ccc(F)c(Cl)c45)c(F)c4nc(OC[C@@]56CCCN5C[C@H](F)C6)nc(c34)N12` [Compound 119] the figure was 233 nM; with `C#Cc1c(F)ccc2cc(N)cc(-c3nc4c5c(nc(OC[C@@]67CCCN6C[C@H](F)C7)nc5c3F)N3CCOCCC3N4C)c12` (some centres unmarked) [Compound 114], 747 nM.

The next experiment deals with GDP-KRAS G12V (Homo sapiens, UniProt P01116, G12V). The experiment is described as follows: biochemical.
GDP-KRAS G12V, sequence (P01116 1-169 isoform P01116-2 G12V): as the sequence (P01116 1-169 isoform P01116-2 G12V) above
Details: not given
For `C#Cc1c(F)ccc2cc(N)cc(-c3nc4c5c(nc(OC[C@@]67CCCN6C[C@H](F)C7)nc5c3F)N3[C@H](C)CCOC[C@H]3N4C)c12` [Compound 41], the IC50 was 4.31 nM.
The same measure, in the same setting: with `C#Cc1c(F)ccc2cc(N)cc(-c3nc4c5c(nc(OC[C@@]67CCCN6C[C@H](F)C7)nc5c3F)N3[C@@H](CC)CCOC[C@H]3N4C)c12` [Compound 94] the figure was 0.576 nM; with `C#Cc1c(F)ccc2cc(N)cc(-c3nc4c5c(nc(OC[C@@]67CCCN6C[C@H](F)C7)nc5c3F)N3CCC=CC[C@H]3C4=C)c12` [Compound 67], 1.36 nM.
Same read-out and setting: in the case of `[2H]C1([2H])OCCCN2c3nc(OC[C@@]45CCCN4C[C@H](F)C5)nc4c(F)c(-c5cc(N)cc6ccc(F)c(C#C)c56)nc(c34)N(C)C21` (some centres unmarked) [Compound 76] it was 1.14 nM; in that of `C[C@H]1CCOC[C@H]2N(C)c3nc(-c4cc(O)cc5ccc(F)c(Cl)c45)c(F)c4nc(OC[C@@]56CCCN5C[C@H](F)C6)nc(c34)N12` [Compound 119], 0.815 nM; in that of `C#Cc1c(F)ccc2cc(N)cc(-c3nc4c5c(nc(OC[C@@]67CCCN6C[C@H](F)C7)nc5c3F)N3CCOCCC3N4C)c12` (some centres unmarked) [Compound 114], 2.08 nM.

In another experiment the test system is AsPC-1 cells (K-Ras G12D).
Experiment: not given
Details: not given
Compound `C#Cc1c(F)ccc2cc(N)cc(-c3nc4c5c(nc(OC[C@@]67CCCN6C[C@H](F)C7)nc5c3F)N3[C@H](C)CCOC[C@H]3N4C)c12` [Compound 41] gave an IC50 of 1140 nM.
On the same count and under the same terms, with `C#Cc1c(F)ccc2cc(N)cc(-c3nc4c5c(nc(OC[C@@]67CCCN6C[C@H](F)C7)nc5c3F)N3[C@@H](CC)CCOC[C@H]3N4C)c12` [Compound 94] the figure was 82.5 nM; with `C#Cc1c(F)ccc2cc(N)cc(-c3nc4c5c(nc(OC[C@@]67CCCN6C[C@H](F)C7)nc5c3F)N3CCC=CC[C@H]3C4=C)c12` [Compound 67], 136 nM; with `[2H]C1([2H])OCCCN2c3nc(OC[C@@]45CCCN4C[C@H](F)C5)nc4c(F)c(-c5cc(N)cc6ccc(F)c(C#C)c56)nc(c34)N(C)C21` (some centres unmarked) [Compound 76], 76 nM.
Same read-out and setting: in the case of `C[C@H]1CCOC[C@H]2N(C)c3nc(-c4cc(O)cc5ccc(F)c(Cl)c45)c(F)c4nc(OC[C@@]56CCCN5C[C@H](F)C6)nc(c34)N12` [Compound 119] it was 52.1 nM; in that of `C#Cc1c(F)ccc2cc(N)cc(-c3nc4c5c(nc(OC[C@@]67CCCN6C[C@H](F)C7)nc5c3F)N3CCOCCC3N4C)c12` (some centres unmarked) [Compound 114], 586 nM.
